Measured values: ChEMBL document CHEMBL1127546, “New thiol inhibitors of neutral endopeptidase EC 3.4.24.11: synthesis and enzyme active-site recognition” (J Med Chem, 1994)

How the values were obtained:
[1] = biological target: T1, Angiotensin-converting enzyme (Homo sapiens, UniProt P12821); experiment: Tested for inhibitory potency against Angiotensin I Converting Enzyme
Neprilysin [2] = biological target: T2, Neprilysin (Oryctolagus cuniculus, UniProt P08049); experiment: Tested for inhibitory potency against neutral endopeptidase (NEP)
T2 sequence (P08049 whole entry): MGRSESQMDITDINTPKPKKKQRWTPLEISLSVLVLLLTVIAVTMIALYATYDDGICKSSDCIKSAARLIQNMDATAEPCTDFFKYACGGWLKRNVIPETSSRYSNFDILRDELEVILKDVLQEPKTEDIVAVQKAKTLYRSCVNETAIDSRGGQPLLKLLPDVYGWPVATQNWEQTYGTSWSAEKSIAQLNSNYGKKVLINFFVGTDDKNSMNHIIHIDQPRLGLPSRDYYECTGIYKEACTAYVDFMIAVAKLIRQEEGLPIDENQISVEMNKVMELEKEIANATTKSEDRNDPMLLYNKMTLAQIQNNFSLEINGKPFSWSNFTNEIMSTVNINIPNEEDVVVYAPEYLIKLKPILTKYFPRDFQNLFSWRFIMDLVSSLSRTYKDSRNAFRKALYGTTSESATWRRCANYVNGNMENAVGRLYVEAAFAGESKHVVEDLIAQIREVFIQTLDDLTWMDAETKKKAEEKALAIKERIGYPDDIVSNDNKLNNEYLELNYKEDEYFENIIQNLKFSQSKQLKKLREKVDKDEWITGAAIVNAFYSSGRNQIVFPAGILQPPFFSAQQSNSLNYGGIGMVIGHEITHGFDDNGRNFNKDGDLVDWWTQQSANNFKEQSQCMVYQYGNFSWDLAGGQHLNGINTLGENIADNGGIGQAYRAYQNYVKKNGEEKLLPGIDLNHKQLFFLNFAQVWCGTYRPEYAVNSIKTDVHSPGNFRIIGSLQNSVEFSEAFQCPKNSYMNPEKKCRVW

Neprilysin [3] = biological target: T2, Neprilysin; experiment: Tested for binding affinity against neutral endopeptidase (NEP)
Thermolysin = biological target: T3, Thermolysin (Bacillus thermoproteolyticus, UniProt P00800); experiment: Tested for binding affinity against Thermolysin; design: species or system Bacteria
T3 sequence (P00800 whole entry): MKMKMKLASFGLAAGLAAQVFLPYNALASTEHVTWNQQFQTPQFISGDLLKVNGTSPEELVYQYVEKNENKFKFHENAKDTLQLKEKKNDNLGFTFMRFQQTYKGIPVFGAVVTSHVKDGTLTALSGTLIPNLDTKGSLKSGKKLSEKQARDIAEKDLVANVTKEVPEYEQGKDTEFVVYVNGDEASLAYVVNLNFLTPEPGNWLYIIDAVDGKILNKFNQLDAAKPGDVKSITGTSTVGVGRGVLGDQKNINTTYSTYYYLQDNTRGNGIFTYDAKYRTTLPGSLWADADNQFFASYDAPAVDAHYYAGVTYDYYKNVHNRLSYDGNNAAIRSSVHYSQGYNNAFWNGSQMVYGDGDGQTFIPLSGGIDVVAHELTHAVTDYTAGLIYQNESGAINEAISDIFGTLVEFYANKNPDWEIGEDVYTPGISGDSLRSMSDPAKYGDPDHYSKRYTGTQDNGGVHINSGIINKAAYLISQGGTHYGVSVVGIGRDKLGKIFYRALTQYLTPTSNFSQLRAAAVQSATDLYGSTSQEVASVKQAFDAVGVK

[4] = biological target: T1, Angiotensin-converting enzyme; experiment: Tested for inhibitory potency against Angiotensin I converting enzyme

T1 sequence (P12821 whole entry): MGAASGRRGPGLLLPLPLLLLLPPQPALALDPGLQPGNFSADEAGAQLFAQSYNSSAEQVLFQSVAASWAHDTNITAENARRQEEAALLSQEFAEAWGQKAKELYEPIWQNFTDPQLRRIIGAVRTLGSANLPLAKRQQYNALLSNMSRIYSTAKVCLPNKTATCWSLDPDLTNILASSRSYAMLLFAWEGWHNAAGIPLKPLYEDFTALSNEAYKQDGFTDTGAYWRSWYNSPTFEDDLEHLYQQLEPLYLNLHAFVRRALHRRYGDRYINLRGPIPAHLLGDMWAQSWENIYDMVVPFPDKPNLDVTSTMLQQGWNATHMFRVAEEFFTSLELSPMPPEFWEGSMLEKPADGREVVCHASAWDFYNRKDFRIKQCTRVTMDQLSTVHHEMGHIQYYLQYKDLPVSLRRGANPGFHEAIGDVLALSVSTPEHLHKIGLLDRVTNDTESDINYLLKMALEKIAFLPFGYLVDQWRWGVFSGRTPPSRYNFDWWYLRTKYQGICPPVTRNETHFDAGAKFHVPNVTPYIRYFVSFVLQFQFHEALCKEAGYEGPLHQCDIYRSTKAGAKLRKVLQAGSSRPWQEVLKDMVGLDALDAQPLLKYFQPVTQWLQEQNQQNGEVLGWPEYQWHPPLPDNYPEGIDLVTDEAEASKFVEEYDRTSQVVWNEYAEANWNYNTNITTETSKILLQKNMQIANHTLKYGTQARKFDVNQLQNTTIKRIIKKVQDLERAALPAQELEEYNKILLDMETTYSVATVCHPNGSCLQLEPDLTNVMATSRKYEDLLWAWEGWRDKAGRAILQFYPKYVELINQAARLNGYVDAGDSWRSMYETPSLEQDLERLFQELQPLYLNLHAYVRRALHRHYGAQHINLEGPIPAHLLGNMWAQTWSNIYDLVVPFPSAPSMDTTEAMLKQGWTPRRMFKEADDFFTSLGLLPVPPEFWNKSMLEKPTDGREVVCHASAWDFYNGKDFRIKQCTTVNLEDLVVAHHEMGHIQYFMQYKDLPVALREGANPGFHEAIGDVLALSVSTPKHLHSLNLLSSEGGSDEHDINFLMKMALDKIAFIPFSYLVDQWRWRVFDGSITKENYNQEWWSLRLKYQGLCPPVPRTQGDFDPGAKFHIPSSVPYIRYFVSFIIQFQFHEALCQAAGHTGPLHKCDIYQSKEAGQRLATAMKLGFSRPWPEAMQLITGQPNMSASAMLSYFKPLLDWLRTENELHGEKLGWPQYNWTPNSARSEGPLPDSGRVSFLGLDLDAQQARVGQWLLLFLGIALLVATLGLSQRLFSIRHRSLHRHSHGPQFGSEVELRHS

Structure (SMILES) | IC50 [1] [nM] | IC50 (Neprilysin [2]) [nM] | further results
O=C(O)C1CCCN1C(=O)C(Cc1ccccc1)CC(S)Cc1ccccc1 (stereo unspecified) | 3600 | 320 | –
CCC(C)C(CC(S)Cc1ccccc1)C(=O)N1CCCC1C(=O)O (stereo unspecified) | 2800 | 350 | –
CCC(C)C(S)CC(Cc1ccccc1)C(=O)N[C@@H](Cc1ccc(O)cc1)C(=O)O (stereo partly specified) | 4400 | 270 | –
CCC(C)C(S)CC(C(=O)NC(Cc1ccc(O)cc1)C(N)=O)C(C)CC (stereo unspecified) | 4000 | 360 | –
O=C(O)CCNC(=O)C(Cc1ccccc1)CC(Cc1ccccc1)C(=O)O (stereo unspecified) | – | 18 | –
O=C(O)CCNC(=O)C(Cc1ccccc1)CC(S)Cc1ccccc1 (stereo unspecified) | 3500 | 290 | –
O=C(O)C(CCc1ccccc1)N[C@@H](Cc1ccccc1)C(=O)NC[C@H](O)C(=O)O (stereo partly specified) | – | – | Ki (Neprilysin [3]): 11 nM
O=C(NC(Cc1ccc(O)cc1)C(=O)O)C(Cc1ccccc1)CC(S)Cc1ccccc1 (stereo unspecified) | 2400 | 150 | –
CC(C)C[C@H](NC(CCc1ccccc1)C(=O)O)C(=O)N[C@@H](Cc1c[nH]c2ccccc12)C(=O)O (stereo partly specified) | – | – | Ki (Thermolysin): 50 nM
CCC(C)C1CC(Cc2ccccc2)SC1=O (stereo unspecified) | 2300 | 220 | –
CC(NC(=O)C(Cc1ccccc1)CC(S)Cc1ccccc1)C(=O)O (stereo unspecified) | – | 190 | IC50 [4]: 3800 nM
CCC(C)C(CC(S)CCc1ccccc1)C(=O)NC(Cc1ccc(O)cc1)C(=O)O (stereo unspecified) | 2900 | 260 | –
CCC(C)C(CC(S)Cc1ccccc1)C(=O)O (stereo unspecified) | 4000 | 250 | –
CCC(C)C(S)CC(C(=O)NC(Cc1ccc(O)cc1)C(=O)O)C(C)CC (stereo unspecified) | 3400 | 380 | –
CC(NC(=O)C(Cc1ccccc1)CC(S)c1ccccc1)C(=O)O (stereo unspecified) | 3500 | 130 | –
CCC(C)C(S)CC(Cc1ccccc1)C(=O)N[C@H](Cc1ccc(O)cc1)C(=O)O (stereo partly specified) | 8000 | 320 | –
CCC(C)C(S)CC(Cc1ccccc1)C(=O)NC(Cc1ccc(O)cc1)C(N)=O (stereo unspecified) | 3500 | 350 | –
CC(C)CC(S)C(Cc1ccccc1)C(=O)NC(C)C(=O)O (stereo unspecified) | – | 3.6 | IC50 (Thermolysin): 4000 nM
O=C(O)CNC(=O)[C@@H](CS)Cc1ccccc1 [THIORPHAN] | – | – | IC50 (Thermolysin): 1800 nM
CCC(C)C(CC(S)Cc1ccccc1)C(=O)NC(Cc1ccc(O)cc1)C(=O)O (stereo unspecified) | 800 | 220 | –
